# Legend:
# [1] = biological target: Delta-type opioid receptor (Rattus norvegicus, UniProt P33533); assay: Compound was tested for its ability to displace [3H]DADLE from delta receptor in rat brain.; type: tissue-based
# Mu-type opioid receptor = Mu-type opioid receptor (Rattus norvegicus, UniProt P33535); assay: Compound was tested for its ability to displace [3H]DAMGO from mu receptor in rat brain.; type: tissue-based
# [2] = biological target: Kappa-type opioid receptor (Cavia porcellus, UniProt P41144); assay: Compound was tested for its ability to displace [3H]U-69593 from kappa receptor in guinea pig brain.
# Sequence of Kappa-type opioid receptor (P41144 whole entry): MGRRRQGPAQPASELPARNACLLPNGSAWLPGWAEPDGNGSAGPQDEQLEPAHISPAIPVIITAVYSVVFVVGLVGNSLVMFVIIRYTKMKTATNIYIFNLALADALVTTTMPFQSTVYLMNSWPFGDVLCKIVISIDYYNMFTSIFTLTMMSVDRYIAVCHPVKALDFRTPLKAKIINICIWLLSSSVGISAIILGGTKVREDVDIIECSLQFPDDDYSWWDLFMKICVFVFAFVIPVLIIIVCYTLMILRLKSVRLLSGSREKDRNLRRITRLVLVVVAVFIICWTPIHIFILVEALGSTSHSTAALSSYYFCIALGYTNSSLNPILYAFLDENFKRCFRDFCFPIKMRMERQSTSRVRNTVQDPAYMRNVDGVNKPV
# Sequence of Delta-type opioid receptor (P33533 whole entry): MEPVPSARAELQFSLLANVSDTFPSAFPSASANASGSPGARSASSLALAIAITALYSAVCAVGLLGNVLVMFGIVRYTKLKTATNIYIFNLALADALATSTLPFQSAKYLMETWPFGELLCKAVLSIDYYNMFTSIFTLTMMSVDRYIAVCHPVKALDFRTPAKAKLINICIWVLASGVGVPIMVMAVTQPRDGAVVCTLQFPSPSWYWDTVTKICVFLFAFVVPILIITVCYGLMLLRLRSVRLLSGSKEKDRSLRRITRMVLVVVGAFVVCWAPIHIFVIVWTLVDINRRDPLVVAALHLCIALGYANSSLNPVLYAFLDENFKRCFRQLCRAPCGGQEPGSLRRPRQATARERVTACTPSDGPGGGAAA
# Sequence of Mu-type opioid receptor (P33535 whole entry): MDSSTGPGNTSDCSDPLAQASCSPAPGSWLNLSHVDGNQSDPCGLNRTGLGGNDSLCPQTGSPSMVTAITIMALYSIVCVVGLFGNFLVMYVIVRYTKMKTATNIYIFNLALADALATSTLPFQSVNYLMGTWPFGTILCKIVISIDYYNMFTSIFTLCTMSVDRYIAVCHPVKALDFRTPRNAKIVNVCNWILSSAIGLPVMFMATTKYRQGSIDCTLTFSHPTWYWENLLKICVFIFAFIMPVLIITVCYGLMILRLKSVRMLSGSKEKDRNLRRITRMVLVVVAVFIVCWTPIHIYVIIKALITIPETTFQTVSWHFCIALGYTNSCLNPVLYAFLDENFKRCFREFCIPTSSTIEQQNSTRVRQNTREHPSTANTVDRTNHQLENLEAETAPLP
SMILES,Ki [1],Ki (Mu-type opioid receptor),Ki [2]
O[C@@]12Cc3c([nH]c4ccccc34)[C@@H]3Oc4c(-c5ccco5)ccc5c4[C@@]31CCN(CC1CC1)[C@@H]2C5,0.959 µM,> 5.68 µM,> 6.8 µM
Oc1cccc(-c2ccc3c4c2O[C@H]2c5[nH]c6ccccc6c5C[C@@]5(O)[C@@H](C3)N(CC3CC3)CC[C@]425)c1,1.61 µM,> 5.68 µM,> 6.8 µM
Cc1ccc2c3c1O[C@H]1c4[nH]c5ccccc5c4C[C@@]4(O)[C@@H](C2)N(CC2CC2)CC[C@]314,0.071 µM,> 5.68 µM,> 6.8 µM
O[C@@]12Cc3c([nH]c4ccccc34)[C@@H]3Oc4c(-c5ccccc5)ccc5c4[C@@]31CCN(CC1CC1)[C@@H]2C5,10.6 µM,> 5.68 µM,> 6.8 µM
COc1cccc(-c2ccc3c4c2O[C@H]2c5[nH]c6ccccc6c5C[C@@]5(O)[C@@H](C3)N(CC3CC3)CC[C@]425)c1,> 6.67 µM,> 5.68 µM,> 6.8 µM
C=Cc1ccc2c3c1O[C@H]1c4[nH]c5ccccc5c4C[C@@]4(O)[C@@H](C2)N(CC2CC2)CC[C@]314,0.061 µM,> 5.68 µM,17.6 µM
O[C@@]12Cc3c([nH]c4ccccc34)[C@H]3Oc4cccc5c4[C@@]31CCN(CC1CC1)[C@@H]2C5,0.035 µM,> 5.68 µM,10.9 µM
Oc1ccc2c3c1O[C@H]1c4[nH]c5ccccc5c4C[C@@]4(O)[C@@H](C2)N(CC2CC2)CC[C@]314 [NALTRINDOLE],0.000217 µM,,0.0304 µM

# — ChEMBL document CHEMBL1130776, “Synthesis and biological activity of 3-substituted 3-desoxynaltrindole derivatives” (Bioorg Med Chem Lett, 1998)
